Our source for the EC50 and IC50 values is patent EP4745124A1, “NAPHTHALIMIDE-BASED CORONAVIRUS PAPAIN-LIKE PROTEASE INHIBITOR” (Guangzhou National Laboratory, priority 2023, dated 2025).

One assay concerns SARS-CoV-2 WT. The experiment in a line: Anti-viral activity evaluation in SARS-CoV-2 infected Vero-E6 cell model (qRT-PCR viral copy numbers). The note with it: Severe acute respiratory syndrome coronavirus 2, Vero C1008, 48 h, read-out: SARS-Cov-2 WT EC50 (µM). The class given is cell-based.
Another assay relates to SARS-Cov-2 Omicron BA.5. Description: microbe, parasite or virus in culture. The class given is cell-based. The note with it: Severe acute respiratory syndrome coronavirus 2, Vero C1008, 48 h, read-out: SARS-Cov-2 Omicron BA.5 EC50 (µM).
For the next assay, the system named is SARS-Cov-2 XBB.1. Description: microbe, parasite or virus in culture. It counts as cell-based. The note with it: Severe acute respiratory syndrome coronavirus 2, Vero C1008, 48 h, read-out: SARS-Cov-2 XBB.1 EC50 (µM).
The target of a further assay is T1, SARS-CoV-2 PL^Pro (Severe acute respiratory syndrome coronavirus 2, UniProt P0DTD1).
T1 construct: SARS-CoV-2 PL^Pro catalytic domain (746-1060); made in house
Description: biochemical.

[1] abbreviates: SARS-CoV-2 PLPro catalytic domain (746-1060), 10 minutes pre-incubation, read-out: PLpro IC50.

Structures are written as SMILES. Like-named read-outs stand apart in the source and are kept apart here. Some results are limits rather than exact numbers.

With `Cc1ccc(N2CC3CC(C2)N3)cc1C(=O)NC1(c2ccc3c4c(cccc24)C(=O)N3C)CC1` [Compound P5, 5-(3,6-diazabicyclo[3.1.1]heptan-3-yl)-2-methyl-N-(1-(1-methyl-2-oxo-1,2-dihydrobenzo[cd]indol-6-yl)cyclopropyl)be nzamide], the figures for the 50% effective concentration (EC50) in the assay with SARS-CoV-2 WT, with SARS-Cov-2 Omicron BA.5 and in the assay with SARS-Cov-2 XBB.1 were below 0.04 µM, 0.1 to 1 µM and 0.04 to 0.1 µM, respectively. Moreover, on SARS-CoV-2 PL^Pro, the IC50 was below 40 nM.
Taken in the same sequence, the figures for `Cc1ccc(C2=CCN(C)CC2)cc1C(=O)NC1(c2ccc3c4c(cccc24)C(=O)N3C)CC1` [Compound P7, 2-Methyl-5-(1-methyl-1,2,3,6-tetrahydropiperidin-4-yl)-N-(1-(1-methyl-2-oxo-1,2-dihydrobenzo[cd]indol-6-yl)cyclopropyl)benzamide] were 0.1 to 1 µM, 0.1 to 1 µM, 0.1 to 1 µM and below 40 nM.
Taken in the same sequence, the figures for `Cc1ccc(N2CC3CC(C2)N3C)cc1C(=O)NC1(c2ccc3c4c(cccc24)C(=O)N3C)CC1` [Compound P11, 2-methyl-N-(1-(1-methyl-2-oxo-1,2-dihydrobenzo[cd]indol-6-yl)cyclopropyl)-5-(6-methyl-3,6-diazabicyclo[3.1.1]heptan-3-yl)benzamide] were 0.1 to 1 µM, 0.1 to 1 µM, 0.04 to 0.1 µM and below 40 nM.
Regarding `CC(C)N1C(=O)c2cccc3c(C4(NC(=O)c5cccc(N6CC7CC(C6)N7)c5)CC4)ccc1c23` [Compound P16, 5-(3,6-diazabicyclo[3.1.1]heptan-3-yl)-N-(1-(1-isopropyl-2-oxo-1,2-dihydrobenzo[cd]indol-6-yl)cyclopropyl)benzamide], the EC50 in the assay on SARS-CoV-2 WT is 0.1 to 1 µM; in the assay on SARS-Cov-2 Omicron BA.5 it was 0.1 to 1 µM; in the assay on SARS-Cov-2 XBB.1 it was 0.04 to 0.1 µM. In addition, the IC50 on SARS-CoV-2 PL^Pro (read-out: PLpro IC50) is below 40 nM.
For `Cc1ccc(N2CC3CCCN(C)C3C2)cc1C(=O)NC1(c2ccc3c4c(cccc24)C(=O)N3C)CC1` (centres unmarked) [Compound P39, 2-Methyl-N-(1-(1-methyl-2-oxo-1,2-dihydrobenzo[cd]indol-6-yl)cyclopropyl)-5-(1-methyloctahydro-6H-pyrrolo[3,4-b]pyridin-6-yl)benzamide], the IC50 on SARS-CoV-2 PL^Pro (setting [1]) was below 40 nM.
`Cc1ccc(N2C[C@H]3C[C@@H]2CN3C)cc1C(=O)NC1(c2ccc3c4c(cccc24)C(=O)N3C)CC1` [Compound P40, 2-Methyl-N-(1-(1-methyl-2-oxo-1,2-dihydrobenzo[cd]indol-6-yl)cyclopropyl)-5-((1R,4R)-5-methyl-2,5-diazabicyclo[2. 2.1]heptan-2-yl)benzamide]: the IC50 at SARS-CoV-2 PL^Pro (setting [1]) is below 40 nM.
The same measure, in the same setting: to `Cc1ccc(N2CCN(CC(C)O)CC2)cc1C(=O)NC1(c2ccc3c4c(cccc24)C(=O)N3C)CC1` (centres unmarked) [Compound P41, 5-(4-(2-hydroxypropyl)piperazin-1-yl)-2-methyl-N-(1-(1-methyl-2-oxo-1,2-dihydrobenzo[cd]indol-6-yl)cyclopropyl)be nzamide] belongs below 40 nM.
In the case of `Cc1ccc(N2CC(N3CCC3)C2)cc1C(=O)NC1(c2ccc3c4c(cccc24)C(=O)N3C)CC1` [Compound P42, 5-([1,3'-diazetidin]-1'-yl)-2-methyl-N-(1-(1-methyl-2-oxo-1,2-dihydrobenzo[cd]indol-6-yl)cyclopropyl)benzamide], the IC50 at SARS-CoV-2 PL^Pro (read-out: PLpro IC50) was below 40 nM.
On to `Cc1ccc(N2CC(N3CCC(O)C3)C2)cc1C(=O)NC1(c2ccc3c4c(cccc24)C(=O)N3C)CC1` (centres unmarked) [Compound P43, 5-(3-(3-hydroxypyrrolidin-1-yl)azetidin-1-yl)-2-methyl-N-(1-(1-methyl-2-oxo-1,2-dihydrobenzo[cd]indol-6-yl)cyclopropyl)benzamide], for which the IC50 on SARS-CoV-2 PL^Pro (setting [1]) was below 40 nM.
Same read-out and setting: to `Cc1ccc(N2CC(N3CCN(C)C(=O)C3)C2)cc1C(=O)NC1(c2ccc3c4c(cccc24)C(=O)N3C)CC1` [Compound P44, 2-Methyl-N-(1-(1-methyl-2-oxo-1,2-dihydrobenzo[cd]indol-6-yl)cyclopropyl)-5-(3-(4-methyl-3-oxopiperazin-1-yl)azetidin-1-yl)benzamide] belongs 100 to 1000 nM.
As for `Cc1ccc(N2CC(N3CCCC3)C2)cc1C(=O)NC1(c2ccc3c4c(cccc24)C(=O)N3C)CC1` [Compound P45, 2-methyl-N-(1-(1-methyl-2-oxo-1,2-dihydrobenzo[cd]indol-6-yl)cyclopropyl)-5-(3-(pyrrolidin-1-yl)azetidin-1-yl)benzamide], on SARS-CoV-2 PL^Pro (setting [1]), the IC50 is below 40 nM.
Consider `Cc1ccc(N2CC(N3CCOCC3)C2)cc1C(=O)NC1(c2ccc3c4c(cccc24)C(=O)N3C)CC1` [Compound P46, 2-methyl-N-(1-(1-methyl-2-oxo-1,2-dihydrobenzo[cd]indol-6-yl)cyclopropyl)-5-(3-morpholinazetidin-1-yl)benzamide], for which the IC50 on SARS-CoV-2 PL^Pro (read-out: PLpro IC50) was 100 to 1000 nM.
Still for that read-out and setting: next, `Cc1ccc(N2CC3CCN(C)C3C2)cc1C(=O)NC1(c2ccc3c4c(cccc24)C(=O)N3C)CC1` (centres unmarked) [Compound P47]: below 40 nM.
`Cc1ccc(N2CCC(N3CCCC3)C(F)(F)C2)cc1C(=O)NC1(c2ccc3c4c(cccc24)C(=O)N3C)CC1` (centres unmarked) [Compound P48, 5-(3,3-difluoro-4-(pyrrolidin-1-yl)piperidin-1-yl)-2-methyl-N-(1-(1-methyl-2-oxo-1,2-dihydrobenzo[cd]indol-6-yl)cyclopropyl)benzamide]: the IC50 at SARS-CoV-2 PL^Pro (setting [1]) fell in the range of 100 to 1000 nM.
Same read-out and setting: to `Cc1ccc(N2CCN(CC(C)(C)O)CC2)cc1C(=O)NC1(c2ccc3c4c(cccc24)C(=O)N3C)CC1` [Compound P49, 5-(4-(2-Hydroxy-2-methylpropyl)piperazin-1-yl)-2-methyl-N-(1-(1-methyl-2-oxo-1,2-dihydrobenzo[cd]indol-6-yl)cyclopropyl)benzamide] belongs below 40 nM.
On the same count and under the same terms, next, `Cc1ccc(N2CCC(N3CCCCC3)C2)cc1C(=O)NC1(c2ccc3c4c(cccc24)C(=O)N3C)CC1` (centres unmarked) [Compound P50, 2-Methyl-N-(1-(1-methyl-2-oxo-1,2-dihydrobenzo[cd]indol-6-yl)cyclopropyl)-5-(3-(piperidin-1-yl)pyrrolidin-1-yl)benz amide]: below 40 nM.
Consider `Cc1ccc(N2CCN(CCCS(C)(=O)=O)CC2)cc1C(=O)NC1(c2ccc3c4c(cccc24)C(=O)N3C)CC1` [Compound P51], for which, on SARS-CoV-2 PL^Pro (read-out: PLpro IC50), the IC50 lay within 40 to 100 nM.
`Cc1ccc(N2CCN(CCN(C)C)CC2)cc1C(=O)NC1(c2ccc3c4c(cccc24)C(=O)N3C)CC1` [Compound P52, 5-(4-(2-(Dimethylamino)ethyl)piperazin-1-yl)-2-methyl-N-(1-(1-methyl-2-oxo-1,2-dihydrobenzo[cd]indol-6-yl)cyclopropyl)benzamide]: the IC50 on SARS-CoV-2 PL^Pro (setting [1]) lay in the range of 100 to 1000 nM.
On the same count and under the same terms, to `Cc1ccc(N2CCN(CCO)CC2)cc1C(=O)NC1(c2ccc3c4c(cccc24)C(=O)N3C)CC1` [Compound P53, 5-(4-(2-Hydroxyethyl)piperazin-1-yl)-2-methyl-N-(1-(1-methyl-2-oxo-1,2-dihydrobenzo[cd]indol-6-yl)cyclopropyl)ben zamide] belongs 40 to 100 nM.
For the compound `Cc1ccc(N2CC(N3CC(F)C3)C2)cc1C(=O)NC1(c2ccc3c4c(cccc24)C(=O)N3C)CC1` [Compound P54, 5-(3-Fluoro-[1,3'-diazetidinyl]-1'-yl)-2-methyl-N-(1-(1-methyl-2-oxo-1,2-dihydrobenzo[cd]indol-6-yl)cyclopropyl)ben zamide], the IC50 on SARS-CoV-2 PL^Pro (read-out: PLpro IC50) lay in the range of 40 to 100 nM.
